We go through nine compounds from PubChem BioAssay (NCI).

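The compound was tested at five concentrations on cells cultured in 96-well plates, with a 48-hour exposure period. At the TGI there is no net growth.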 Some results are limits rather than exact numbers.

Some test systems named below: BT-549 breast; CAKI-1 renal; EKVX NSCLC; HOP-92 NSCLC; IGROV1 ovarian; M14 melanoma; MDA-MB-435; MOLT-4 leukemia; NCI-H23 lung; OVCAR-5 ovarian; OVCAR-8 ovarian; SF-539 CNS; SK-OV-3 ovarian; SNB-75 CNS; TK-10 renal; UACC-62 melanoma; A498 renal; HCC-2998 colon; SK-MEL-28 melanoma.
What all share (experiment): NCI anticancer screen, dose series, 48 h

With `COc1ccc(C/C=C(\C)CCO)cc1`, the TGI in the test on BT-549 breast was above 100 µM; in the test with CAKI-1 renal, 94.3 µM; in the test on EKVX NSCLC it was above 100 µM; with HOP-92 NSCLC, above 100 µM; in the test on IGROV1 ovarian it was above 100 µM; in the test on M14 melanoma it was above 100 µM. Besides, the TGI in the test with MDA-MB-435, with MOLT-4 leukemia, with NCI-H23 lung, with OVCAR-5 ovarian, in the test on OVCAR-8 ovarian and in the test on SF-539 CNS was above 100 µM in each case. Moreover, the TGI in the test with SK-OV-3 ovarian, in the test on SNB-75 CNS, in the test on TK-10 renal and in the test on UACC-62 melanoma was above 100 µM throughout.

For the compound `C[n+]1c2ccccc2n2c3ccccc3c(NCc3ccco3)c(C#N)c21`, the TGI with A498 renal was 20.4 µM; in the test on BT-549 breast, above 100 µM; with CAKI-1 renal it was 7.36 µM; in the test with EKVX NSCLC, 13.6 µM; in the test on HCC-2998 colon, 3.36 µM; in the test with M14 melanoma it was 5.62 µM. Further, the TGI in the test with MDA-MB-435 was determined as 4.34 µM; in the test on NCI-H23 lung it was 8.92 µM; in the test with OVCAR-5 ovarian it was 12 µM; with SF-539 CNS, 8.79 µM; with SK-MEL-28 melanoma, 5.75 µM; in the test on SK-OV-3 ovarian, 39.8 µM. In addition, the TGI in the test on SNB-75 CNS amounted to 6.86 µM; in the test with TK-10 renal, 11.3 µM; in the test with UACC-62 melanoma, 11.7 µM.

With `CC1CN=C(N(C(=O)Nc2ccc(Cl)cc2)c2cccc(Cl)c2)S1` (centres undefined), the TGI in the test with A498 renal was 91.8 µM; in the test with CAKI-1 renal, above 100 µM; with EKVX NSCLC it was above 100 µM; in the test on HCC-2998 colon it was 84.6 µM; in the test with HOP-92 NSCLC, 65.4 µM; with IGROV1 ovarian it was above 100 µM. The TGI in the test on M14 melanoma, in the test on NCI-H23 lung, in the test with OVCAR-5 ovarian, with OVCAR-8 ovarian, with SF-539 CNS and with SK-MEL-28 melanoma was above 100 µM throughout. Moreover, the TGI was above 100 µM with SK-OV-3 ovarian, above 100 µM in the test on SNB-75 CNS and 62.1 µM in the test with TK-10 renal.

In the case of `CS(=O)(=O)c1ccc(C(=O)O[C@@H]2C(=O)N3CC[C@H]4OC(O)[C@@H]2[C@H]43)cc1` (some centres undefined), the TGI in the test on A498 renal, in the test on BT-549 breast, with CAKI-1 renal, with EKVX NSCLC, in the test with HCC-2998 colon and in the test on M14 melanoma was above 100 µM in each case. Also, the TGI in the test with MDA-MB-435, with MOLT-4 leukemia, with NCI-H23 lung, in the test on OVCAR-5 ovarian, in the test with OVCAR-8 ovarian and in the test with SF-539 CNS was above 100 µM each time. In addition, the TGI with SK-MEL-28 melanoma, with SK-OV-3 ovarian, with SNB-75 CNS, in the test on TK-10 renal and in the test on UACC-62 melanoma was above 100 µM each time.

As for `O=P(O)(O)c1ccc2c(c1)OCCOCCOCCOCCO2`, the TGI in the test on A498 renal, with BT-549 breast, with EKVX NSCLC, in the test with HCC-2998 colon, with IGROV1 ovarian and in the test on MDA-MB-435 was above 100 µM in each case. Besides, the TGI in the test on MOLT-4 leukemia, in the test with NCI-H23 lung, in the test on OVCAR-8 ovarian, with SF-539 CNS, in the test with SK-MEL-28 melanoma and in the test on SK-OV-3 ovarian was above 100 µM each time. Further, the TGI in the test with SNB-75 CNS, with TK-10 renal and in the test with UACC-62 melanoma was above 100 µM in each case.

With `COc1c(C)c(C/C=C(\C)CC/C=C(\C)CC/C=C(\C)CC/C=C(\C)CCC=C(C)C)c(OC)c(OC)c1OC`, the TGI in the test with BT-549 breast is above 100 µM; in the test with CAKI-1 renal, above 100 µM; in the test with EKVX NSCLC, above 100 µM; in the test on HOP-92 NSCLC, 31.8 µM; in the test on IGROV1 ovarian it was 60.3 µM; in the test on M14 melanoma, above 100 µM. Further, the TGI with MDA-MB-435 is above 100 µM; with MOLT-4 leukemia it was above 100 µM; in the test with NCI-H23 lung it was 44.2 µM; in the test on OVCAR-5 ovarian, above 100 µM; in the test with OVCAR-8 ovarian, 46.1 µM; with SF-539 CNS, above 100 µM. Besides, the TGI was above 100 µM with SK-OV-3 ovarian, above 100 µM with SNB-75 CNS, 69 µM in the test on TK-10 renal and above 100 µM in the test on UACC-62 melanoma.

As for `CCCC(=O)Nc1cc(/C=C/C(=O)N2CC(CCl)c3ccc([N+](=O)[O-])cc32)n(C)c1` (centres undefined), the TGI in the test on BT-549 breast, in the test on CAKI-1 renal, in the test with EKVX NSCLC, with HCC-2998 colon, in the test with IGROV1 ovarian and in the test on M14 melanoma was above 100 µM each time. Besides, the TGI with MDA-MB-435, with NCI-H23 lung, in the test on OVCAR-5 ovarian, with OVCAR-8 ovarian, in the test on SF-539 CNS and in the test with SK-MEL-28 melanoma was above 100 µM in each case. Also, the TGI in the test on SK-OV-3 ovarian, with SNB-75 CNS, with TK-10 renal and in the test on UACC-62 melanoma was above 100 µM each time.

On to `C/C(CC(O)(C(F)(F)F)C(F)(F)F)=N\NC(N)=S`, for which the TGI with A498 renal, in the test on CAKI-1 renal, in the test with EKVX NSCLC, with HCC-2998 colon, in the test on HOP-92 NSCLC and with IGROV1 ovarian was above 10 µM in each case. The TGI with M14 melanoma, in the test on MDA-MB-435, in the test with MOLT-4 leukemia, in the test on NCI-H23 lung, in the test with OVCAR-8 ovarian and in the test on SF-539 CNS was above 10 µM throughout. Besides, the TGI in the test on SK-MEL-28 melanoma, in the test with SK-OV-3 ovarian, in the test on SNB-75 CNS, in the test on TK-10 renal and in the test with UACC-62 melanoma was above 10 µM each time.

As for `Cc1cn(CC2(CO)CCC2)c(=O)[nH]c1=O`, the TGI in the test on A498 renal, in the test with BT-549 breast, in the test on CAKI-1 renal, with EKVX NSCLC, with HCC-2998 colon and in the test on IGROV1 ovarian was above 100 µM throughout. In addition, the TGI in the test on MDA-MB-435, with MOLT-4 leukemia, with NCI-H23 lung, in the test on OVCAR-5 ovarian, with OVCAR-8 ovarian and in the test on SF-539 CNS was above 100 µM throughout. For the same compound, the TGI in the test on SK-MEL-28 melanoma, in the test with SK-OV-3 ovarian, with SNB-75 CNS, with TK-10 renal and with UACC-62 melanoma was above 100 µM in each case.
